Experimental data: paper PMC10611828 (European Journal of Nuclear Medicine and Molecular Imaging, 2023)

Experiments:
[1] = design: method as in PMID 35027371, PMID 28644732; settings: compared with RM2; cited from earlier work
[2] = Stability in human serum at 37 °C (radio-HPLC); format: in vitro ADME; settings: 0 h
Protocol: (§1) The ^177Lu-labeled peptides were incubated in 300-μL phosphate buffered saline (PBS; Gibco, ThermoFisher, The Netherlands) at 37 °C, and their stability was verified after 1, 4, 24, 48, and 72 h by radio-HPLC (Supplementary Fig. 2). The stability in serum was determined by incubating the radiolabeled compounds into 300 μL of mouse serum (Invitrogen, USA) or human serum (Sigma Aldrich, USA) at 37 °C (Supplementary Fig. 3, 4). At each time point post-incubation, 35 μL of the mixture was added to an Eppendorf tube, and the proteins were precipitated by adding an equal volume of acetonitrile. The tubes were centrifuged at 16,000 rpm, 4 °C for 20 min, and the stability was monitored by radio-HPLC, expressed as the RCP at the different time points.

[3] = Stability in mouse serum at 37 °C (radio-HPLC); format: in vitro ADME; settings: 0 h
Protocol: as §1

PC-3 cells = assay: Uptake and specificity in PC-3 cells; format: cell-based, human; settings: 1 h 37 °C
Protocol: PC-3 cells were seeded at 2.5 × 10^5 cells/well into 12 well plates 18–24 h prior to the experiment. […] Hereafter, cells were washed twice with PBS and subsequently lysed with 0.1 M NaOH for 20 min at room temperature (RT). The cell lysates were collected and measured using a gamma counter (1480 WIZARD automatic γ-counter, PerkinElmer, The Netherlands). […] Hereafter, cells were washed twice with cold PBS and lysed with 0.1 M NaOH for 20 min at RT. The cell lysates were collected and measured to determine the amount of radioactivity in a gamma counter. To correct for cell density, cells from two separate wells were counted (Countess counter, Invitrogen, The Netherlands), and data was expressed as percentage of added dose (AD) per 2.5 × 10^5 cells.

[4] = design: method as in PMID 31482426; settings: all patients; cited from earlier work
[5] = Stability in PBS at 37 °C (radio-HPLC); format: physicochemical
Protocol: as §1

Compound	lipophilicity (structure and LogD) [1]	intact radiolabeled ligand (RCP) [2]	intact radiolabeled ligand (RCP) [3]	uptake in the presence of Tyr^4-BBN (PC-3 cells; 10^-9 M + 10^-6 M Tyr^4-BBN)	uptake (PC-3 cells; 10^-9 M, per 2.5 × 10^5 cells)	tolerability in patients [4]	intact radiolabeled ligand (RCP) ([5]; 0 h)	intact radiolabeled ligand (RCP) ([5]; 1 h)	intact radiolabeled ligand (RCP) ([5]; 4 h)	intact radiolabeled ligand (RCP) ([5]; 24 h)	intact radiolabeled ligand (RCP) ([5]; 48 h)	intact radiolabeled ligand (RCP) ([5]; 72 h)
CC(C)CC(CC(C)C)NC(=O)[C@H](Cc1cnc[nH]1)NC(=O)CNC(=O)[C@@H](NC(=O)[C@H](C)NC(=O)[C@H](Cc1c[nH]c2ccccc12)NC(=O)[C@H](CCC(N)=O)NC(=O)[C@@H](Cc1ccccc1)NC(=O)COCC(=O)Nc1ccc(CNC(=O)CN2CCN(CC(=O)O)CCN(CC(=O)O)CCN(CC(=O)O)CC2)cc1)C(C)C [NeoB, DOTA-pADA-D-Phe-Gln-Trp-Ala-Val-Gly-His-NH-CH[CH2-CH(CH3)2]2]	more lipophilic											
CC(C)C[C@H](NC(=O)C[C@H](O)[C@H](CC(C)C)NC(=O)[C@H](Cc1c[nH]cn1)NC(=O)CNC(=O)[C@@H](NC(=O)[C@H](C)NC(=O)[C@H](Cc1c[nH]c2ccccc12)NC(=O)[C@H](CCC(N)=O)NC(=O)[C@@H](Cc1ccccc1)NC(=O)CN1CCC(NC(=O)CN2CCN(CC(=O)O)CCN(CC(=O)O)CCN(CC(=O)O)CC2)CC1)C(C)C)C(N)=O [[^177Lu]Lu-RM2] [metal not drawn]		97.4 ± 0.3%	97.4 ± 0.3%	< 1 % AD	10.96 ± 3.46 % AD	well tolerated	97.4 ± 0.3%	97.8 ± 0.4%	96.7 ± 0.5%	95.6 ± 0.3%	87.6 ± 0.6%	80.4 ± 0.8%
